Experimental findings from patent US8580268B2, “CpG oligonucleotide analogs containing hydrophobic T analogs with enhanced immunostimulatory activity” (Coley Pharmaceutical GmbH, priority 2006, dated 2013) are described below.

“Also recorded” adds a separate entry of the source. Strand notation (5' to 3'): a small letter for the sugar, then the base; units joined by * are phosphorothioate-linked, units joined directly phosphodiester-linked; [ ] holds rarer units or linkages, { } end groups; capitals alone tell only the bases. [5IU] = 5-iodo-2'-deoxyuridine; [5EtU] = 5-ethyl-2'-deoxyuridine (EU); d = 2'-deoxy (DNA); m = 2'-O-methyl

Data set [1] relates to SaI/N tumor cells. The data set can be described thus: Mouse SA1N tumor model. The note with it: A/J mice. In kind it is in vivo. On the procedure: SA1N tumor model: Female A/J mice (10 per group) were injected SC with 5×10^5 SaI/N tumor cells on day 0. Mice were treated with 100 μg ODN or PBS alone given SC once weekly starting on day 8 post tumor induction. Animals were monitored for survival and tumor volume. Tumor size (the length and the width) was measured using a digital vernier caliper. Tumor volume was calculated by using the formula: Tumor volume=(0.4) (ab2), where a=large diameter and b=smaller diameter.
Next the modified P-class ODN were evaluated for their ability to reduce tumor volume mouse SA1N tumor model. Female A/J mice (10 per group) were injected SC with 5×10^5 SaI/N tumor cells on day 0. Mice were treated with 35 μg (FIG. 31a) or 100 μg (FIG. 31b) P-class ODN with a lipophilic substituted nucleotide analog (SEQ ID NO:60, 64, and 67), an unmodified C-class ODN, an unmodified B-class ODN (SEQ ID NO:55), or PBS alone. ODN were given SC once weekly starting on day 8 post tumor induction. Animals were monitored for survival and tumor volume.

Data set [2] concerns the target T1, human TLR9 (Homo sapiens, UniProt Q9NR96).
T1 construct: expressed in transfected cells
T1 sequence (Q9NR96 26-1032): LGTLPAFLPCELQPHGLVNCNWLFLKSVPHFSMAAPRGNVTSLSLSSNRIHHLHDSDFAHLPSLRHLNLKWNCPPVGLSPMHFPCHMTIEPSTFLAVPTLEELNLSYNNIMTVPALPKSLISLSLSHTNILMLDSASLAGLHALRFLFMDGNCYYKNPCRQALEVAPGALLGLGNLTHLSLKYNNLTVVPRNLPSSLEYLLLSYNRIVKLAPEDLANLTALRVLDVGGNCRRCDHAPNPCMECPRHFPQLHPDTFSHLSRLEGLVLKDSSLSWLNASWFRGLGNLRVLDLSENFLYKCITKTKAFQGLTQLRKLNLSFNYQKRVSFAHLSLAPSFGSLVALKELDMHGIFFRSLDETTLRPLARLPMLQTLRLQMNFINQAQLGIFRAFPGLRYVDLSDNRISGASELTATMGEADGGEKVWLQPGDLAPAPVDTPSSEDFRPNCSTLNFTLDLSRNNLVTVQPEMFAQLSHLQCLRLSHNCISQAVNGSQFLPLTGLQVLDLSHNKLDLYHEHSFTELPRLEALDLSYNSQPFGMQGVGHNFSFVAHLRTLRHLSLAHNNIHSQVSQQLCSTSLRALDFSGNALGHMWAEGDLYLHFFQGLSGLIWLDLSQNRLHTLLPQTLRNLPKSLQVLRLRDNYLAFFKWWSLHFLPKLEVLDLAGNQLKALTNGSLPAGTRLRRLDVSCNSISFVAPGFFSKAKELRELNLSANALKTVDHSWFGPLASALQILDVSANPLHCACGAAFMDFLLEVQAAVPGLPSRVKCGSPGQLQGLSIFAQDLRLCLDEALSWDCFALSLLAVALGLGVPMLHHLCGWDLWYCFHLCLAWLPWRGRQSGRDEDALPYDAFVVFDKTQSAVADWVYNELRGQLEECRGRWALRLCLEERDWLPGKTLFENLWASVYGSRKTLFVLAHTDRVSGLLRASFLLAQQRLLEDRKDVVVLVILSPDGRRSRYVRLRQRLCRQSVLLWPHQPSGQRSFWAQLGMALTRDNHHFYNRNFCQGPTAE
Briefly: TLR9 luciferase assay (NF-κB reporter) in hTLR9-LUC-293 cells. It counts as cell-based. The note with it: 16 h, stated in words relative to the comparator ODN. The method, then:
HEK293 cells were transfected by electroporation with vectors expressing the respective human TLR and a 6xNF-κB-luciferase reporter plasmid. Stable transfectants (3×10^4 cells/well) were incubated indicated amounts of ODN for 16 h at 37° C. in a humidified incubator. Each data point was done in triplicate. Cells were lysed and assayed for luciferase gene activity (using the BriteLite kit from Perkin-Elmer, Zaventem, Belgium). Stimulation indices were calculated in reference to reporter gene activity of medium without addition of ODN.

The test system of data set [3] is BALB/c mice. The data set can be described thus: In vivo murine IFN-alpha induction after SC injection (ELISA). On the set-up: species or system mouse. The note with it: bled at 3 hr post injection. On the procedure: Female BALB/c mice (6-8 weeks of age) were purchased from Charles River Canada (Quebec, Canada) and housed in micro-isolators in the Animal Care Facility at Coley Pharmaceutical Group Canada. All studies were conducted in accordance with the Animal Care Committee of Coley Canada under the guidance of the Canadian Council on Animal Care. All animals were naïve to CpG ODNs.
In order to determine the effect of the modified P-class ODN in vivo, BALB/c mice (5 per group) were injected SC with differing doses of ODN. Animals were bled at 3 hr post injection and plasma tested for IFN-alpha by ELISA. The activity of modified P-class ODN (SEQ ID NO:58, 60-62, 64, and 67) was compared to that of a B-class negative control (SEQ ID NO:55) and a negative control (SEQ ID NO:26).
(In general: In an ELISA, binding on a coated surface is turned into a signal by an enzyme label.)

Data set [4] relates to human PBMC. The data set can be described thus: IL-6 induction in human PBMC (luminex). The note with it: human PBMC from three donors, 24 h. In kind it is cell-based. On the procedure: (§1) Peripheral blood buffy coat preparations from healthy human donors were obtained from the Blood Bank of the University of Düsseldorf (Germany) and PBMC were purified by centrifugation over Ficoll-Hypaque (Sigma). Cells were cultured in a humidified incubator at 37° C. in RPMI 1640 medium supplemented with 5% (v/v) heat inactivated human AB serum (BioWhittaker) or 10% (v/v) heat inactivated FCS, 2 mM L-glutamine, 100 U/ml penicillin and 100 μg/ml streptomycin (all from Sigma).
(§2) PBMC were resuspended at a concentration of 5×10^6 cells/ml and added to 96 well round-bottomed plates […]. PBMC were incubated with ODN and culture supernatants (SN) were collected after the indicated time points. If not used immediately, SN were stored at −20° C. until required.
(§3) Amounts of cytokines in the SN were assessed using an in-house ELISA for IFN-α developed using commercially available antibody (PBL, New Brunswick, N.J., USA) or on the Luminex multiplex system (Luminex Corporation, 12212 Technology Boulevard, Austin, Tex. 78727-6115).
Next the modified P-class ODN were tested for the ability to induce IL-6 in human PBMC. PBMC from three donors were incubated with ODN at concentrations as indicated for 24 h, followed by luminex 25-plex analysis of the supernatants for IL-6. The activity of modified P-class ODN (SEQ ID NO:58, 60-62, FIG. 28a) (SEQ ID NO:64 and 67, FIG. 28b) was compared to that of an unmodified B-class ODN (SEQ ID NO:55), and unmodified C-class ODN (SEQ ID NO:54), a negative control ODN (SEQ ID NO:53), and an unmodified P-class ODN (SEQ ID NO:56).

In data set [5] the test system is human PBMC. The data set can be described thus: IFN-alpha production in human PBMC (ELISA). In kind it is cell-based. The method, then: as §1, §2, §3
The mark [6] stands for this setting: 35 μg ODN SC once weekly from day 8.
Setting [7] is: 100 μg ODN SC once weekly from day 8.

Regarding “EU*C-G*A*C*G*T*C*G*A*T*C*G*G*C*G*C*G*C*G*C*C*G (DNA d[5EtU]*dCdG*dA*dC*dG*dT*dC*dG*dA*dT*dC*dG*dG*dC*dG*dC*dG*dC*dG*dC*dC*dG) [SEQ ID NO:64, EU-modified P-class]”, the “reduction in tumor volume” value in data set [1] (setting [6]) is recorded as “greatest reduction in tumor volume”; in data set [1] (setting [7]), “effective in reducing tumor volume”. Moreover, in data set [2], the “TLR9 stimulation (NF-κB luciferase activity, relative stimulation index)” value is “higher degree of TLR9 stimulation than the unmodified P class ODN”.

In the case of “JU*C*G*A*C*G*T*C*G*A*T*C*G*G*C*G*C*G*C*G*C*C*G*T (DNA d[5IU]*dC*dG*dA*dC*dG*dT*dC*dG*dA*dT*dC*dG*dG*dC*dG*dC*dG*dC*dG*dC*dC*dG*dT) [SEQ ID NO:61, JU-modified P-class]”, the “plasma IFN-alpha induction” value in data set [3] is recorded as “slightly higher IFN-alpha induction”. Further, the IL-6 induction entry in data set [4] was “slightly higher activation of IL-6”.

Regarding “JU*C*G*T*C*G*A*C*G*A*T*C*G*G*C*G*G*C*C*G*C*C*G*T (DNA d[5IU]*dC*dG*dT*dC*dG*dA*dC*dG*dA*dT*dC*dG*dG*dC*dG*dG*dC*dC*dG*dC*dC*dG*dT) [SEQ ID NO:67, JU-modified fully phosphorothioate P-class]”, the “reduction in tumor volume” value in data set [1] (setting [6]) was “greatest reduction in tumor volume”; in data set [1] (setting [7]), “effective in reducing tumor volume”. Also, in data set [2], the “TLR9 stimulation (NF-κB luciferase activity, relative stimulation index)” value was “higher degree of TLR9 stimulation than the unmodified P class ODN”. In data set [4], the IL-6 induction entry is given as “slightly higher activation of IL-6”.

With “JU*C-G*A*C*G*T*C*G*A*T*C*G*G*C*G*C*G*C*G*C*C*G (DNA d[5IU]*dCdG*dA*dC*dG*dT*dC*dG*dA*dT*dC*dG*dG*dC*dG*dC*dG*dC*dG*dC*dC*dG) [SEQ ID NO:58, JU-modified P-class]”, the “plasma IFN-alpha induction” value in data set [3] was “slightly higher IFN-alpha induction”. Also, in data set [4], the IL-6 induction entry is listed as “slightly higher activation of IL-6”.

For the substance “JU*C-G*A*C*G*T*C*G*A*T*C*G*G*C*G*C*G*C*G*C*C*G*T (DNA d[5IU]*dCdG*dA*dC*dG*dT*dC*dG*dA*dT*dC*dG*dG*dC*dG*dC*dG*dC*dG*dC*dC*dG*dT) [SEQ ID NO:60, JU-modified P-class]”, the entries for the “reduction in tumor volume” value in data set [1] (setting [6]) and in data set [1] (setting [7]) were “greatest reduction in tumor volume” and “effective in reducing tumor volume”, respectively. Also, in data set [3], the “plasma IFN-alpha induction” value is given as “slightly higher IFN-alpha induction”. Further, the IL-6 induction entry in data set [4] is “slightly higher activation of IL-6”.

Turning to “JU*C-G*T*C*G*A*C*G*A*T*C*G*G*C*G*G*C*C*G*C*C*G*T (DNA d[5IU]*dCdG*dT*dC*dG*dA*dC*dG*dA*dT*dC*dG*dG*dC*dG*dG*dC*dC*dG*dC*dC*dG*dT) [SEQ ID NO:66, JU-modified P-class with phosphodiester bond in the CG dinucleotide]”, in data set [5] (human PBMC incubated 48 hours, ELISA, P-class ODN), the IFN-alpha induction result is reported as “reduced activity compared to SEQ ID NO:67”. Moreover, the “TLR9 stimulation (NF-κB luciferase activity, relative stimulation index)” value in data set [2] is “higher degree of TLR9 stimulation than the unmodified P class ODN; also recorded: reduced activity compared to the fully phosphorothioate SEQ ID NO:67”.

On to “T*G*T*C-G*T*T*T*T*T*T*T*T*T*T*T*T*T*T*T (DNA dT*dG*dT*dCdG*dT*dT*dT*dT*dT*dT*dT*dT*dT*dT*dT*dT*dT*dT*dT) [SEQ ID NO:1, reference compound]”, for which the IFN-alpha production result in data set [5] (human PBMC, 24 h, supernatants by ELISA, B-class ODN) was “virtually inactive”.

In the case of “T*mG*JU*C-mG*T*T*T*T*T*T*T*T*T*T*T*T*T*T*T (DNA dT*mG*d[5IU]*dCmG*dT*dT*dT*dT*dT*dT*dT*dT*dT*dT*dT*dT*dT*dT*dT) [SEQ ID NO:113, 2′-O-methyl-modified B-class]”, the “TLR9 stimulation (NF-κB luciferase activity, relative stimulation index)” value in data set [2] is given as “slightly more active”.
